Test results taken from ChEMBL document CHEMBL1201862, “PubChem BioAssay data set” (2004).
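Compound exposure: 48 hours, 5 concentrations, 96-well plates. Abbreviation: GI50, concentration required for 50% inhibition of growth.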 Active and inactive are the calls of the source. Cut-off read from the data, not from the text of the source: active = GI50 up to about 1.1 µM and inactive = higher.

Tests used:
Experiment in all cases: inhibition of tumour cell growth, NCI panel, 48 h
RXF 393 = system: RXF 393
EKVX = system: EKVX
LOX IMVI = system: LOX IMVI
RPMI-8226 = system: RPMI-8226
SNB-19 = system: SNB-19
HT-29 = system: HT-29
UACC-62 = system: UACC-62
UO-31 = system: UO-31
SN12C = system: SN12C
NCI-H522 = system: NCI-H522
K562 = system: K562
SW-620 = system: SW-620
HCT-116 = system: HCT-116
A549 = system: A549
A498 = system: A498
HCT-15 = system: HCT-15
T47D = system: T47D
Hs-578T = system: Hs-578T
MOLT-4 = system: MOLT-4
KM12 = system: KM12
M14 = system: M14
MCF7 = system: MCF7
OVCAR-5 = system: OVCAR-5
MDA-MB-231 = system: MDA-MB-231
HL-60 = system: HL-60
MDA-N = system: MDA-N
SK-MEL-5 = system: SK-MEL-5
IGROV-1 = system: IGROV-1
SK-MEL-2 = system: SK-MEL-2
COLO 205 = system: COLO 205
OVCAR-3 = system: OVCAR-3
UACC-257 = system: UACC-257
TK-10 = system: TK-10
HCC 2998 = system: HCC 2998
SF-268 = system: SF-268
NCI/ADR-RES = system: NCI/ADR-RES
Malme-3M = system: Malme-3M
NCI-H226 = system: NCI-H226
CCRF-CEM = system: CCRF-CEM
SF-295 = system: SF-295
PC-3 = system: PC-3
SF-539 = system: SF-539
NCI-H460 = system: NCI-H460
OVCAR-8 = system: OVCAR-8
SK-MEL-28 = system: SK-MEL-28
NCI-H23 = system: NCI-H23
SR = system: SR
HOP-62 = system: HOP-62
BT-549 = system: BT-549
786-0 = system: 786-0
SNB-75 = system: SNB-75
DU-145 = system: DU-145
SK-OV-3 = system: SK-OV-3
ACHN = system: ACHN
U-251 = system: U-251

## COc1ccccc1NC(=O)O/N=C(/Cl)C(C)C
RXF 393
  GI50: 14.9 µM (inactive)
EKVX
  GI50: 16.1 µM (inactive)
LOX IMVI
  GI50: 2.28 µM (inactive)
RPMI-8226
  GI50: 2.1 µM (inactive)
SNB-19
  GI50: 30.9 µM (inactive)
HT-29
  GI50: 3.49 µM (inactive)
UACC-62
  GI50: 17.5 µM (inactive)
UO-31
  GI50: 18.8 µM (inactive)
SN12C
  GI50: 15.4 µM (inactive)
NCI-H522
  GI50: 1.81 µM (inactive)
K562
  GI50: 2.24 µM (inactive)
SW-620
  GI50: 1.82 µM (inactive)
HCT-116
  GI50: 14.1 µM (inactive)
A549
  GI50: 18.2 µM (inactive)
A498
  GI50: 15.6 µM (inactive)
HCT-15
  GI50: 13.2 µM
T47D
  GI50: 21 µM (inactive)
Hs-578T
  GI50: 24.9 µM (inactive)
MOLT-4
  GI50: 1.92 µM (inactive)
KM12
  GI50: 20.2 µM (inactive)
M14
  GI50: 5.9 µM (inactive)
MCF7
  GI50: > 10 µM (inactive)
OVCAR-5
  GI50: 16.3 µM (inactive)
MDA-MB-231
  GI50: 7.19 µM (inactive)
HL-60
  GI50: 1.64 µM (inactive)
MDA-N
  GI50: 13.6 µM (inactive)
SK-MEL-5
  GI50: 11.8 µM (inactive)
IGROV-1
  GI50: 16.7 µM (inactive)
SK-MEL-2
  GI50: 16.4 µM (inactive)
COLO 205
  GI50: 2.4 µM (inactive)
OVCAR-3
  GI50: 6.19 µM (inactive)
UACC-257
  GI50: 13.7 µM (inactive)
TK-10
  GI50: 13.6 µM (inactive)
HCC 2998
  GI50: 15.6 µM (inactive)
SF-268
  GI50: 16.6 µM (inactive)
NCI/ADR-RES
  GI50: 15.3 µM (inactive)
Malme-3M
  GI50: 2.78 µM (inactive)
NCI-H226
  GI50: 20.8 µM (inactive)
CCRF-CEM
  GI50: 0.977 µM (active)
SF-295
  GI50: 15.2 µM (inactive)
PC-3
  GI50: 18.5 µM (inactive)
SF-539
  GI50: 19.5 µM (inactive)
NCI-H460
  GI50: 19.3 µM (inactive)
OVCAR-8
  GI50: 15 µM (inactive)
SK-MEL-28
  GI50: 13.6 µM (inactive)
NCI-H23
  GI50: 14 µM (inactive)
SR
  GI50: 1.91 µM (inactive)
HOP-62
  GI50: 12.5 µM (inactive)
BT-549
  GI50: 3.48 µM (inactive)
786-0
  GI50: 11.9 µM (inactive)
SNB-75
  GI50: 0.889 µM (active)
DU-145
  GI50: 18.8 µM (inactive)
SK-OV-3
  GI50: 18.7 µM (inactive)
ACHN
  GI50: 5.92 µM (inactive)
U-251
  GI50: 16.7 µM (inactive)
